This note sets out measurements from US20160090351A1, “INHIBITORS OF DEUBIQUITINATING PROTEASES” (BRANDEIS UNIVERSITY, priority 2013, published 2016).

In one data set the test system is Cos-1 cells. As to the kind of experiment: accumulation of K48- and K63-linked HMW-Ub in Cos-1 cells. It counts as cell-based, monkey. The procedure:
A. Cos-1 cells were treated with C15 dosing every 2 h for 4 hours. Cells were lysed in standard lysis buffer (without detergent) and the sample was clarified prior to analysis. The accumulation of K48-linked ubiquitin was assayed by SDS-PAGE and by western blot. An intervening lane has been removed for clarity. B Lysates and pellet in A were sonicated in SDS at 4° C., centrifuged then analyzed by SDS-PAGE and by western blot. An intervening lane has been removed for clarity. C. Quantitation of blots in A. D. Quantitation of blots in B.
FIG. 39 depicts data showing the effects of diphenyl carbonates in whole cells. A. Cos-1 cells expressing GFP-Ub(G76V) were treated with the stated diphenyl carbonate (100 μM), bortezomib (B, 20 μM) or DMSO (D) for 8 h. GFP levels were quantified by flow cytometry. B. Cells from A were assessed for viability using propidium iodide dye exclusion assay. C. […] After this time GFP levels were quantified by flow cytometry. D. Cells from C were assessed for viability using propidium iodide dye exclusion. […] G. Cos-1 cells were treated with C15 for 2 hours then analyzed for K48-linked ubiquitin by western blot. […] I. Quantitation of blots in […] (N=3).
(§1) Transfected cells were harvested 1.5 days post transfection. […] Typically clarified lysate was analyzed.

The next data set relates to SMAD4. As to the kind of experiment: SMAD4 monoubiquitination in K562 cells by western blot. The data set is classed as cell-based, human. The procedure:
FIG. 34 depicts data showing that diphenylcarbonates cause the accumulation of HMW-Ub and reduce the levels of Bcr-Abl in K562 cells. A. K562 cells were treated with diphenyl carbonates (50 μM) for 2 h and then assayed for the accumulation of K48-linked Ub. B. As in A, but Bcr-Abl was measured by immunoblotting with anti-Abl antibodies. C. K562 cells were treated with C17 (50 μM) in the presence and absence of bortezomib (6 μM) for 4 hours and Bcr-Abl was measured by immunblotting with anti-Abl antibodies. D. Quantitation of blot in C. Significance: DMSO relative to C17 and bortezomib p=0.002; DMSO relative to C17, p=0.03. E. K562 cells were treated with C15 for 4 hours then analyzed for SMAD4 monoubiquitination by western blot. F. Quantitation of blots in A. (N=3). See also FIG. 40.
as §1

In a further data set the test system is USP9x and USP7. Kind of data set: HA-Ub-VS activity profiling of lysates from treated HEK 293T cells, USPs. The data set is classed as cell-based, human. To be noted: 100 μM, 2 hours. The procedure: FIG. 32 depicts data showing that diphenyl carbonates inhibit DUBs in HEK 293T cells. A. Viability of HEK 293T cells assessed by the propidium iodide exclusion method: diphenyl carbonate (100 μM), bortezomib (V, 20 μM) and G5 (2 μM). N≧3, mean+/−s.d. B. HEK 293T cells were treated with the stated compounds (50 μM) for 2 h and then assayed for the accumulation of K48-linked Ub species. C. As in A, but K63-linked Ub was assayed. D. HEK 293T cells were treated with C14, C15, C17, C18 (100 μM) or DMSO for 2 hours, then harvested, lysed and treated with HA-Ub-VS. After 30 min, lysates were analyzed by SDS-PAGE and probed for HA, tubulin and actin. An intervening lane was removed for clarity. E. HEK 293T cells expressing Ub-G76V-GFP were treated with diphenyl carbonates (100 μM), bortezomib (20 μM) and G5 (2 μM). […] N>3, Mean+/−s.d. See also FIG. 39.
Lysate labeling assay on untransfected cells (1.5 mg/mL) was run with the stated concentration of inhibitor (or 1% DMSO control) for between 19-60 mins. After this time HA-Ub-VS (1.5-0.7 μM) was added and incubated for 19 mins. After this time reaction mixture (9 μL) was removed and quenched in 2× (final concentration) reducing loading buffer. […]
Lysates from HEK 293T cells treated with diphenylcarbonates were analyzed by HA-Ub-VS activity profiling to assess the selectivity of DUB inhibition in the context of a cell.

The test system of the next data set is B16/F10 cells. As to the kind of experiment: proliferation and cell cycle of B16/F10 cells. It counts as cell-based, mouse.
The subject of data set [1] is MCF7 cells.
Method: (§2) MCF7 cells were dosed every 2 hours with the indicated concentration of C15. After 6 hours, cells were lysed by freeze thaw and then sonicated in 0.5% SDS. […] MCF7 cells were treated under the stated conditions then analyzed for cell cycle. […] G. Cells treated with C17 (25 μM), dosed every 24 hours. H. Cells treated with C17 (50 μM), dosed every 24 hours. […] These cells were left for 72 h (single dose) after which time the total number of viable cells was analyzed using Alamar Blue®. All data are n≧4 showing mean+/−s.e.m. K. MCF7 cells were plated with C17 for 24 hours after which time the total number of viable cells was measured by Alamar Blue®.
(§3) All cells were grown at 37° C. in a 5% CO2 humidified atmosphere in DMEM supplemented with 10% heat inactivated FBS, 1× glutamax, and 1× penicillin/streptomycin. […] Proliferation assays were conducted by plating cells at 5% confluence in 96 well plates together with compound or 0.1% DMSO. Cells were allowed to grow for 72 hours (a 24 h dosing regimen was used for carbonate compounds) and then Alamar Blue® was added and number of cells was measured by fluorescence on a microplate reader.
For data set [2], the system named is USP9x, USP19, USP7/8, USP28/15. As to the kind of experiment: HA-Ub-VS activity profiling in cell lysates, USPs. It counts as biochemical, human.
The subject of data set [3] is MCF7 cells. Kind of data set: viability and cell cycle of MCF7 cells (Alamar Blue, FACS).
Method: as §2, §3

Entries after “also recorded” stand apart in the source; their conditions may differ.

Method for B16/F10 cells: A. MCF7 cells were treated with C17 for 4 h and Mdm2 levels were measured. B. As in A, P53 measured. C. As in A, P21 measured. D. MCF7 and B16/F10 cells were treated with C17 every 24 hours. After 72 hours, the number of viable cells was measured by Alamar Blue®.
MCF7 cells were dosed every 2 hours with the indicated concentration of C15. After 6 hours, cells were lysed by freeze thaw and then sonicated in 0.5% SDS. A. Total lysates were blotted for K48-linked ubiquitin and actin. B. Normalized K48-linked ubiquitin signal was plotted as a function of concentration of C15 (N=2). C. […] Doxorubicin (Dox) is a DNA damaging agent that serves as a positive control for the induction of P53. D. Quantitation of P53 levels in C relative to actin (N=2). […] MCF7 cells were treated under the stated conditions then analyzed for cell cycle. F. DMSO treated cells. G. Cells treated with C17 (25 μM), dosed every 24 hours. H. Cells treated with C17 (50 μM), dosed every 24 hours. […] These cells were left for 72 h (single dose) after which time the total number of viable cells was analyzed using Alamar Blue®. All data are n≧4 showing mean+/−s.e.m. K. MCF7 cells were plated with C17 for 24 hours after which time the total number of viable cells was measured by Alamar Blue®. L. B16/F10 cells were treated with DMSO, C17 or P005091 for 72 h. […] After this time, cells were analyzed by flow cytometry.
All cells were grown at 37° C. in a 5% CO2 humidified atmosphere in DMEM supplemented with 10% heat inactivated FBS, 1× glutamax, and 1× penicillin/streptomycin. […] Typically clarified lysate was analyzed. […] Lysates were centrifuged (20 000 rpm, microcentrifuge, Eppendorf 5417 C) concentration was measured, then 0.1% SDS was added and lysates were sonicated for a total of 30 s (in 10 s bursts). Protein concentration was determined using Bradford assay with IgG as standard and analyzed by western blot as delineated below {[9 μg total protein for K48-linked ubiquitin (1:9000 antibody dilution), SMAD4 (1:500) or PARP (1:1000)]; [30-40 μg was loaded for K63-linked ubiquitin (1:1500), Mdm2 (1:1000) or Abl (1:1500). […]

As to `NCc1ccc(OC(=O)Oc2ccc(Br)cc2)cc1` [Compound C15, 4-(aminomethyl)phenyl(4-bromophenyl)carbonate], the “increase in total K48-linked and K63-linked HMW-Ub” value with Cos-1 cells was 3-5 fold. Besides, the “K48-linked HMW ubiquitin, soluble versus whole cell fraction” value in the data set with Cos-1 cells (dosing every 2 h for 4 hours) was “causes the accumulation of soluble HMW-Ub in Cos-1 cells; also recorded: only detectable in the soluble fraction”. The SMAD4 monoubiquitination result in the data set with SMAD4 is “increased SMAD4 monoubiquitination”.
With `NCc1ccc(OC(=O)Oc2ccc3ccccc3c2)cc1` [Compound C17], in the data set on USP9x and USP7, the “HA-Ub-VS labeling of USP9x and USP7 after treatment of cells” value is “most potent compounds”. Besides, the cell cycle distribution result with B16/F10 cells (72 h, flow cytometry) is “decrease in cells in G1 phase and an increase in G2”. Also, the proliferation entry in the data set on B16/F10 cells (72 hours, dosed every 24 hours) was “inhibited proliferation in B16/F10 cells”. In the data set on MCF7 cells [1], the “cytotoxicity after single dose, 72 h” value was “no cytotoxicity was observed” and the “decrease of cell viability” value worked out at 50%. The “HA-Ub-VS labeling without preincubation” value in data set [2] (C17 25 μM immediately followed by HA-Ub-VS 1.5 μM) is reported as “not sufficient to inhibit the labeling of any of the DUBs”. Besides, the “HA-Ub-VS labeling after preincubation and dilution” value in data set [2] (C17 250 μM preincubated, diluted 10-fold) was “labeling was reduced”. Also, the “viability after single dose, 24 h” value in the data set on MCF7 cells [3] (Alamar Blue) is listed as “small, but significant, decrease in viability”. Besides, in the data set with MCF7 cells [3] (FACS, dosed every 24 hours), the G1 phase cells entry was “significant increase in G1 phase cells”.
As to `NCc1ccc(OC(=O)Oc2cccc3ccccc23)cc1` [Compound C18], the “HA-Ub-VS labeling of USP9x and USP7 after treatment of cells” value in the data set with USP9x and USP7 is reported as “most potent compounds”.
